Laboratory results taken from the supplement of paper PMC11061612.

Key:
Experiment in all cases: Bliss excess, mean over the matrix (fraction); higher = more synergy
[1] = system: HC-1 (Other Blood Carcinomas)
Procedure, shortened: (§1)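 Cell lines grown in DMEM/F12 or RPMI with 10% FBS were plated in 1536-well plates and held 24 hours at 37°C, 5% CO2 before 72 hours of exposure to two-drug dose matrices, with DMSO typically at 0.2%. CellTiter-Glo 2.0 luminescence gave viability, which was converted to inhibition. Vehicle wells were set to 0 and blank wells to 1. Combination Emax is the second-highest inhibition in the matrix, and Bliss excess is the observed combination effect minus the expected EA + EB − EA·EB, where EA and EB are the single-agent effects.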

[2] = system: KYSE-50 (Esophageal Squamous Cell Carcinoma)
Procedure, shortened: as §1

[3] = system: MFE-319 (Endometrial Carcinoma)
Procedure, shortened: as §1

[4] = system: LOU-NH91 (Squamous Cell Lung Carcinoma)
Procedure, shortened: as §1

[5] = system: EW-3 (Ewing's Sarcoma)
Procedure, shortened: as §1

[6] = system: KLE (Endometrial Carcinoma)
Procedure, shortened: as §1

[7] = system: PF-382 (T-Lymphoblastic Leukemia)
Procedure, shortened: as §1

[8] = system: VMRC-LCD (Lung Adenocarcinoma)
Procedure, shortened: as §1

[9] = system: BV-173 (Chronic Myelogenous Leukemia)
Procedure, shortened: as §1

[10] = system: KU-19-19 (Bladder Carcinoma)
Procedure, shortened: as §1

[11] = system: EBC-1 (Squamous Cell Lung Carcinoma)
Procedure, shortened: as §1

[12] = system: KINGS-1 (Low Grade Glioma)
Procedure, shortened: as §1

[13] = system: OCUM-1 (Gastric Carcinoma)
Procedure, shortened: as §1

[14] = system: H-EMC-SS (Chondrosarcoma)
Procedure, shortened: as §1

[15] = system: NCI-H1573 (Lung Adenocarcinoma)
Procedure, shortened: as §1

[16] = system: JHH-7 (Hepatocellular Carcinoma)
Procedure, shortened: as §1

[17] = system: OVISE (Ovarian Carcinoma)
Procedure, shortened: as §1

[18] = system: SCC-3 (B-Cell Non-Hodgkin's Lymphoma)
Procedure, shortened: as §1

[19] = system: GOTO (Neuroblastoma)
Procedure, shortened: as §1

[20] = system: KP-2 (Pancreatic Carcinoma)
Procedure, shortened: as §1

Compound | Bliss excess [1] | Bliss excess [2] | Bliss excess [3] | Bliss excess [4] | Bliss excess [5] | Bliss excess [6] | Bliss excess [7] | Bliss excess [8] | Bliss excess [9] | Bliss excess [10] | Bliss excess [11] | Bliss excess [12] | Bliss excess [13] | Bliss excess [14] | Bliss excess [15] | Bliss excess [16] | Bliss excess [17] | Bliss excess [18] | Bliss excess [19] | Bliss excess [20]
CN(C)CCCOc1ccc(-c2ccc3ncc4c(c3c2)n(C2CCOCC2)c(=O)n4C)cn1 [AZD0156] + O=C(c1cc(Cc2n[nH]c(=O)c3ccccc23)ccc1F)N1CCN(C(=O)C2CC2)CC1 [Olaparib] (first compound max 3 µM, partner max 3 µM) | 0.134 | 0.0152 | 0.0188 | -0.0153 | 0.13 | -0.0506 | 0.102 | -0.0489 | 0.092 | 0.0781 | 0.0413 | -0.0057 | -0.0199 | 0.029 | 0.0002 | 0.117 | -0.0084 | 0.28 | 0.0036 | -0.0072
Cc1c2c(nn1C)CSCc1cc(n(C)n1)CSc1cc(c3ccccc3c1)OCCCc1c(C(=O)O)n(C)c3c-2c(Cl)ccc13 [AZD5991] + CC1(C)CCC(CN2CCN(c3ccc(C(=O)NS(=O)(=O)c4ccc(NCC5CCOCC5)c([N+](=O)[O-])c4)c(Oc4cnc5[nH]ccc5c4)c3)CC2)=C(c2ccc(Cl)cc2)C1 [Venetoclax] (first compound max 1 µM, 7x7, partner max 1 µM) | – | -0.0575 | 0.0377 | -0.0589 | 0.125 | -0.0505 | 0.0223 | -0.0217 | 0.0178 | 0.0578 | -0.0333 | -0.0771 | -0.0182 | 0.0646 | -0.036 | 0.0183 | 0.0031 | 0.017 | 0.0588 | 0.0157
C=CCn1c(=O)c2cnc(Nc3ccc(N4CCN(C)CC4)cc3)nc2n1-c1cccc(C(C)(C)O)n1 [AZD1775] + C[C@@H]1COCCN1C2=NC(=NC(=C2)C3(CC3)[S@](=N)(=O)C)C4=C5C=CNC5=NC=C4 [AZD6738] (first compound max 1 µM, partner max 10 µM) | -0.017 | 0.0328 | 0.0583 | -0.0111 | -0.131 | -0.0361 | -0.0022 | 0.0369 | 0.0199 | -0.0113 | 0.0592 | -0.0475 | -0.0391 | -0.0843 | 0.0215 | 0.0273 | -0.0399 | 0.0428 | -0.0186 | 0.0329
CN(CCO)CC[C@H](CSc1ccccc1)Nc1ccc(S(=O)(=O)NC(=O)c2ccc(N3CCC([C@@H](O)c4ccccc4-c4ccc(Cl)cc4)CC3)cc2)cc1S(=O)(=O)C(F)(F)F [AZD4320] + C1CN(CCC1(C(=O)N[C@@H](CCO)C2=CC=C(C=C2)Cl)N)C3=NC=NC4=C3C=CN4 [Capivasertib] (first compound max 1 µM, 7x7, partner max 3 µM) | -0.0058 | -0.0344 | -0.0081 | -0.067 | -0.0687 | -0.0467 | 0.0458 | -0.0521 | -0.0135 | -0.0394 | -0.0181 | -0.103 | -0.0087 | -0.0081 | 0.0699 | -0.0256 | -0.0459 | -0.0506 | -0.034 | -0.0583
COc1nnc2ccc(N3CCC(c4ccc(OCCN5CCN(C)C(=O)[C@H]5C)cc4)CC3)nn12 [AZD5153] + Cc1c2c(nn1C)CSCc1cc(n(C)n1)CSc1cc(c3ccccc3c1)OCCCc1c(C(=O)O)n(C)c3c-2c(Cl)ccc13 [AZD5991] (first compound max 1 µM, 7x7, partner max 1 µM) | 0.0424 | 0.0144 | -0.0227 | -0.0449 | 0.0114 | -0.0228 | 0.0145 | 0.0098 | 0.0184 | -0.0634 | -0.0528 | -0.0146 | 0.0024 | -0.0212 | 0.0475 | -0.0306 | -0.039 | 0.029 | -0.0096 | 0.0098
COc1cc2c(cc1OCCCCCOc1cc3c(cc1OC)C(=O)N1C=C(C)C[C@H]1C=N3)N=C[C@@H]1CC(C)=CN1C2=O [SG3199] + O=C(c1cc(Cc2n[nH]c(=O)c3ccccc23)ccc1F)N1CCN(C(=O)C2CC2)CC1 [Olaparib] (first compound max 0.001 µM, 7x7, partner max 10 µM) | -0.0164 | -0.0319 | -0.041 | -0.0224 | -0.0613 | 0.0057 | 0.0069 | -0.042 | 0.0535 | -0.0041 | -0.014 | -0.0434 | -0.0653 | -0.0812 | -0.0212 | -0.0368 | -0.0431 | 0.0586 | 0.0943 | -0.0193
C=CCn1c(=O)c2cnc(Nc3ccc(N4CCN(C)CC4)cc3)nc2n1-c1cccc(C(C)(C)O)n1 [AZD1775] + O=C(c1cc(Cc2n[nH]c(=O)c3ccccc23)ccc1F)N1CCN(C(=O)C2CC2)CC1 [Olaparib] (first compound max 1 µM, partner max 10 µM) | -0.0393 | -0.0206 | -0.0235 | -0.0271 | -0.0619 | -0.0499 | -0.0265 | -0.0597 | 0.0184 | -0.0107 | -0.0549 | -0.0777 | -0.0214 | -0.0807 | -0.0251 | -0.0398 | -0.0084 | -0.0259 | -0.0271 | -0.0145
C[C@@H](c1ccc2nccn2c1)n1nnc2ncc(-c3cnn(C)c3)nc21 [Savolitinib] + CN(CC[C@H](CSC1=CC=CC=C1)NC2=C(C=C(C=C2)S(=O)(=O)NC(=O)C3=CC=C(C=C3)N4CCC(CC4)[C@H](C5=CC=CC=C5C6=CC=C(C=C6)Cl)O)S(=O)(=O)C(F)(F)F)CCO [AZD4320] (first compound max 1 µM, 7x7, partner max 1 µM) | -0.0254 | -0.011 | -0.0736 | -0.0642 | – | -0.0664 | -0.0665 | – | -0.0004 | -0.0259 | -0.0067 | – | – | – | -0.0473 | – | -0.0472 | -0.0083 | 0.0166 | -0.0136
Cc1c2c(nn1C)CSCc1cc(n(C)n1)CSc1cc(c3ccccc3c1)OCCCc1c(C(=O)O)n(C)c3c-2c(Cl)ccc13 [AZD5991] + CCN(CCO)CCCOc1ccc2c(Nc3cc(CC(=O)Nc4cccc(F)c4)[nH]n3)ncnc2c1 [AZD2811] (first compound max 1 µM, 7x7, partner max 1 µM) | 0.13 | – | 0.0215 | 0.0225 | 0.05 | -0.0923 | 0.0276 | -0.0133 | -0.0554 | 0.0376 | 0.0019 | -0.0253 | -0.0031 | 0.027 | -0.0145 | 0.0144 | 0.0535 | 0.0604 | -0.0245 | 0.0395
CS(=O)(=O)CCNCc1ccc(-c2ccc3ncnc(Nc4ccc(OCc5cccc(F)c5)c(Cl)c4)c3c2)o1 [Lapatinib] + NC1(c2ccc(-c3nc4ccn5c(=O)[nH]nc5c4cc3-c3ccccc3)cc2)CCC1 [MK-2206] (first compound max 10 µM, 7x7, partner max 10 µM) | – | – | -0.0155 | – | 0.0455 | – | -0.0144 | -0.0273 | – | -0.0103 | – | 0.032 | -0.0313 | -0.0597 | -0.0055 | -0.036 | 0.0286 | – | – | –
CC(=O)c1c(C)c2cnc(Nc3ccc(N4CCNCC4)cn3)nc2n(C2CCCC2)c1=O [Palbociclib] + CN(CC[C@H](CSC1=CC=CC=C1)NC2=C(C=C(C=C2)S(=O)(=O)NC(=O)C3=CC=C(C=C3)N4CCC(CC4)[C@H](C5=CC=CC=C5C6=CC=C(C=C6)Cl)O)S(=O)(=O)C(F)(F)F)CCO [AZD4320] (first compound max 10 µM, 7x7, partner max 1 µM) | 0.0001 | -0.0228 | -0.0554 | -0.0157 | – | -0.0276 | -0.0062 | – | -0.0524 | -0.0482 | -0.0226 | – | – | – | -0.109 | – | -0.0207 | -0.0046 | 0.0226 | -0.0731
COc1nnc2ccc(N3CCC(c4ccc(OCCN5CCN(C)C(=O)[C@H]5C)cc4)CC3)nn12 [AZD5153] + CN(CC[C@H](CSC1=CC=CC=C1)NC2=C(C=C(C=C2)S(=O)(=O)NC(=O)C3=CC=C(C=C3)N4CCC(CC4)[C@H](C5=CC=CC=C5C6=CC=C(C=C6)Cl)O)S(=O)(=O)C(F)(F)F)CCO [AZD4320] (first compound max 1 µM, 7x7, partner max 1 µM) | -0.0468 | 0.0999 | -0.0369 | -0.0215 | – | 0.0847 | 0.0343 | – | -0.0879 | 0.0829 | 0.0628 | – | – | – | 0.0178 | – | 0.0504 | 0.0235 | 0.065 | 0.0546
